Laboratory results reported in patent US20220142948A1, “COMPOSITIONS AND METHODS FOR MODULATING METABOLIC REGULATORS OF T CELL PATHOGENICITY” (The Broad Institute, Inc., priority 2019, published 2022).
“Also recorded” adds a separate entry of the source.

Tests used:
[1] = test system: cellular polyamines in Th17p, Th17n and iTregs; experiment: Total cellular polyamine content (enzymatic assay, Total Polyamine Assay Kit); assay type: cell-based, mouse
From the text: Polyamine ELISA. Cell pellets of in vitro differentiated cells were frozen down and further processed with the Total Polyamine Assay Kit (BioVision Inc.) according to the manufacturer's instructions.

[2] = test system: experimental autoimmune encephalomyelitis (EAE); experiment: Active EAE (MOG35-55/CFA immunization) with DFMO in drinking water; assay type: in vivo, mouse
Description: Experimental Autoimmune Encephalomyelitis (EAE). […] Equivalent of 40 μg MOG peptide was injected per mouse subcutaneously followed by pertussis toxin injection intravenously on day 0 and day 2 of immunization. Mice were treated with 0.5% DFMO in drinking water for 10 days as indicated. DFMO was replenished every third day.
Experimental Autoimmune Encephalomyelitis (EAE). […] Equivalent of 40 μg MOG peptide was injected per mouse subcutaneously followed by pertussis toxin injection intravenously on day 0 and day 2 of immunization. Mice were monitored and assigned grades for clinical signs of EAE using the following scoring system: 0, healthy; 1, limp tail; 2, impaired righting reflex or ataxic gait; 3, hind limb paralysis; 4, total limb paralysis; 5, moribund or death. Mice with a score of >4 were euthanized. If mice died during the course of the experiment, their clinical score of 5 was included in the analysis for the remainder of the experiment.

[3] = biological target: T1, ODC (Homo sapiens, UniProt P11926); settings: cited from earlier work
T1 sequence (P11926 1-461): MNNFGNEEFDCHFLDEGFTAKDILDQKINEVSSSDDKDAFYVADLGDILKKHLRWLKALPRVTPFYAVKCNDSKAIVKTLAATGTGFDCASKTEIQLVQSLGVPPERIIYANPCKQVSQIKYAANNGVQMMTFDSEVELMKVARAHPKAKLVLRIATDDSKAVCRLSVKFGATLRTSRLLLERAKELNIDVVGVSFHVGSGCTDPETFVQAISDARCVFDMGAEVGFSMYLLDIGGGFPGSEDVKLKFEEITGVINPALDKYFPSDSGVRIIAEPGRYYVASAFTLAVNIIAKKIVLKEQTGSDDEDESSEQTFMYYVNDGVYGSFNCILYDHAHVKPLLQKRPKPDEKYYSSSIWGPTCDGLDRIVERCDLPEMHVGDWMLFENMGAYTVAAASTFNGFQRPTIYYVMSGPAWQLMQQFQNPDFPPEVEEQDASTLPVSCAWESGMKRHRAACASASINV

[4] = test system: PGAM in Th17n and Th17p cells; experiment: 13C-glucose carbon tracing by LC/MS; assay type: cell-based, mouse
Description: For carbon tracing experiments Th17 cells were differentiated as described. Thereafter, cells were washed and cultured in media supplemented with 8 mM [U-13C]-glucose for 15 min or 3 hrs.
Let |Ci| be the number of carbon atoms in metabolite i, and let xc,i,j be the measured signal of metabolite i in sample j (subsequent to all normalization and QC procedures) in which there are exactly c 13C atoms. The comparisons of carbon flows are based on the statistic yi,j=(Σt=0^|C^i^|t·xt,i,j)/(|Ci|·Σt=0^|C^i^|xt,i,j)
which measures the 13C ratio of the total carbon contents for metabolite i in sample j.
To find metabolites with differential 13C relative abundance, Applicants computed the ratio yi,j of 13C out of the total carbon contents for each metabolite i in sample j. Let |Ci| be the number of carbon atoms in metabolite i, and let xc,i,j be the measured signal of metabolite i in sample j (subsequent to all normalization and QC procedures) in which there are exactly c 13C atoms.

For NCCC[C@](N)(C(=O)O)C(F)F [DFMO, 2-(difluoromethyl)ornithine], the polyamine concentration ([1]; Th17n cells) was “decrease; also recorded: suppression of polyamines”, the polyamine concentration ([1]; Th17p cells) was “decrease; also recorded: suppression of polyamines” and the polyamine concentration ([1]; iTregs) was “decrease; also recorded: suppression of polyamines”. The “EAE clinical score, onset and severity” value ([2]; 0.5% DFMO in drinking water for 10 days) was “effective in reducing EAE; also recorded: decreases the EAE score; also recorded: delays EAE onset; also recorded: significantly delayed the onset and severity of EAE; also recorded: significant impact in curtailing EAE”, the “Foxp3+CD4+ T cells (Tregs)” value ([2]; lymphocytes isolated from CNS) was “promotes Tregs; also recorded: increased frequency” and the “frequency of cytokine producing cells” value ([2]; lymphocytes isolated from CNS) was “no difference”. For the same molecule, the “uptake of exogenous putrescine” value ([3]; cells treated in vivo with DFMO) was “significantly increase” and the ODC activity ([3]; in vivo) was “irreversibly inhibit”.

With epigallocatechin-3-gallate [EGCG] the “13C contents of 2PG” value ([4]; Th17n and Th17p) was “decrease; also recorded: disturbs” and the “13C ratio of 2PG after EGCG” value ([4]; Th17p) was 33%.
